Where “and” joins values, the source holds several entries; their conditions need not be identical. Equal entries are not always repeated. Where two headings read alike, the source gives them in different places.
Experiments:
[1] = Simcyp prediction of total hepatic clearance; parameters: species or system human
Experimental: The clearance of the incubation mixture was expressed as μL/min/pmol for rCYP.
(§1) The well‐stirred model was used to estimate the hepatic clearance (CLH) due to metabolism.

[2] = PZQ-ketoconazole DDI pharmacokinetic study in healthy volunteers; assay type: in vivo, human; conditions: for AUC(0-inf) / AUC / CL/F / k el / half-life / Tmax / Vd/F: male, human, plasma
Experimental: Plasma samples were obtained from the AiBST biobank. […] Each participant served as their own control. Each participant provided written informed consent to take part in the study and the study was carried out according to Helsinki Declaration of 1975, as revised in 2008. The study was approved by the Medical Research Council of Zimbabwe (MRCZ) and the Medicines Controls Authority of Zimbabwe (MCAZ). […] The samples were vortexed for 30 seconds and left under gentle agitation for 25 minutes. […] From the supernatant, 20 μL was injected onto the chiral HPLC system for analysis. […] Detection was done using a UV diode array detector at 210 nm. […] The data were gathered and processed using Agilent OpenLab CDS for Chemstation software version 1.9. Linear calibration curves were plotted as concentration vs peak area ratio for analyte to IS with no weighting. […] The pharmacokinetic (PK) analysis was performed using the WinNonlin program, version 8.2 (Pharsight Corp). […] A non-compartmental approach was used for curve plotting and parameter calculation. The area under the curve (AUC) from time 0 to the last sampling time point (AUCt) was computed using the log-linear trapezoidal rule. The linear trapezoidal rule was used for the ascending part of the PK curve, while the log trapezoidal rule was used for the descending part of the graph. The AUC extrapolated to infinite time was calculated as AUC∞ = AUCt + Ct/K el where Ct is the concentration of the last sample taken and K el is the terminal elimination rate constant. The terminal elimination rate constant K el was determined by least squares regression analysis in the terminal phase of the semi log concentration-time curve. […] Statistical analysis was performed using the GraFit software (version 3.0, Erithacus Software Limited). […] Analysis of variance (ANOVA) was performed on the AUC and C max after transformation of the data to their natural logarithmic (ln) values.

[3] = cited from earlier work
CYP1A2 = biological target: T1, CYP1A2 (Homo sapiens, UniProt P05177); assay: Enzyme kinetics of hydroxylated metabolites formation; assay type: in vitro ADME; parameters: purchased CYPEX CYP001; host or cells: Escherichia coli; conditions: CYP1A2, formation of cis‐4‐OH‐PZQ
T1 sequence (P05177 1-516): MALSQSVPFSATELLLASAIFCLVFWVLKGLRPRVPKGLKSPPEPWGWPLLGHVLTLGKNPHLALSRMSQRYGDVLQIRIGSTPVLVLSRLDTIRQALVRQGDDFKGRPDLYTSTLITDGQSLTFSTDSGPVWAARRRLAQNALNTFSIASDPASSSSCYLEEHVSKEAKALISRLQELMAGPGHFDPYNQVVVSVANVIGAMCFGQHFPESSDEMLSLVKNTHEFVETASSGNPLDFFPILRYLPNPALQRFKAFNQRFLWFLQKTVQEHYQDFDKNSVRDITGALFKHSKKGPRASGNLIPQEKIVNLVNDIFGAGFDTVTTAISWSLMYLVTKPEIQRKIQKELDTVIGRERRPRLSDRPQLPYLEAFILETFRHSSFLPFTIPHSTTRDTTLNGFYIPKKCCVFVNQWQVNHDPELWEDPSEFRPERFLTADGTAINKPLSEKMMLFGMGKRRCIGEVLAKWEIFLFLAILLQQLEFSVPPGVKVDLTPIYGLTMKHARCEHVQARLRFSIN
Experimental: (§2) The reactions were carried out in duplicate at each time point. Incubation conditions used for the determination of K M and V max were optimized for linearity with respect to time and protein concentrations. […] Metabolites were analyzed by LC‐MS/MS as described below. The K M and V max values of each marker substrate were determined using nonlinear least squares regression analysis in GraFit software (version 3.0, Erithacus Software Limited) and SigmaPlot Enzyme Kinetics Module for Windows 7.0 (SPSS, Inc).
as §1

CYP2C19 = CYP2C19 (Homo sapiens, UniProt P33261); assay: as above; assay type: in vitro ADME; parameters: purchased CYPEX CYP008; host or cells: Escherichia coli; conditions: CYP2C19, formation of cis‐4‐OH‐PZQ
Sequence of CYP2C19 (P33261 whole entry): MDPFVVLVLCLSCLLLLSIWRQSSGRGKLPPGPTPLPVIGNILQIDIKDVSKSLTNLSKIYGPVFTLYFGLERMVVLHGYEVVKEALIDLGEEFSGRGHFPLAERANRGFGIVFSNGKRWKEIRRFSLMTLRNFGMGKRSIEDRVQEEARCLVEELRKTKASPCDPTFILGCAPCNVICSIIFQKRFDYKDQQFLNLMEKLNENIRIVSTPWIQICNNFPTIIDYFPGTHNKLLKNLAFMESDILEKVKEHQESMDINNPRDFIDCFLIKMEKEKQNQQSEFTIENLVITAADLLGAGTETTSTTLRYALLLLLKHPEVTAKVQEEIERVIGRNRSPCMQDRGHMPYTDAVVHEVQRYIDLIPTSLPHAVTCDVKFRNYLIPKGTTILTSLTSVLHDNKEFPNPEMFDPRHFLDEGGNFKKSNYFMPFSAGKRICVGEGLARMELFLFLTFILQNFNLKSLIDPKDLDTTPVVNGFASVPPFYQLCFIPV
Experimental: as §2, §1

[4] = PZQ + ketoconazole vs PZQ alone
[5] = single oral 20 mg/kg PZQ alone, n = 9, listed as R‐Praziquantel, 20 mg/kg

Predicted total CLH (Simcyp) ([1]; metabolite formation assay): 9.777 mL/min/kg | Predicted total CLH (Simcyp) ([1]; substrate depletion assay): 6.923 mL/min/kg | Clearance/F, treatment mean (SD) ([2]; 20 mg/kg PZQ plus 200 mg ketoconazole, n = 9): 1146 (992.1) L/h | Decrease of mean C max with KTZ ([2]; PZQ + KTZ vs PZQ alone): 11.85% | AUCinf, difference observed % [2, 4]: 9% and 9.26% | AUCt0‐tlast, difference observed % [2, 4]: −14.68% | C max, difference observed % [2, 4]: −11.85% | Clearance/F, difference observed % [2, 4]: 26.99% | Elimination rate constant, difference observed % [2, 4]: −4.350% | Half life, difference observed % [2, 4]: 79.64% | T max, difference observed % [2, 4]: −46.33% | V d/F, difference observed % [2, 4]: 74.87% | AUCinf, difference observed % ([2]; PZQ + ketoconazole vs PZQ alone, listed as R‐Praziquantel): 9.290% | AUC(0-inf) ([2]; oral, 20 mg/kg, 20 mg/kg PZQ plus 200 mg ketoconazole, n = 9, read-out: AUCinf, treatment geo mean): 1290 ng·h/mL | AUC(0-inf) ([2]; oral, 20 mg/kg, 20 mg/kg PZQ plus 200 mg ketoconazole, n = 9, read-out: AUCinf, treatment mean (SD)): 1470 ng·h/mL | AUC ([2]; oral, 20 mg/kg, 20 mg/kg PZQ plus 200 mg ketoconazole, n = 9, read-out: AUCt0‐tlast, treatment geo mean): 945 ng·h/mL | CL/F ([2]; oral, 20 mg/kg, 20 mg/kg PZQ plus 200 mg ketoconazole, n = 9, read-out: Clearance/F, treatment geo mean (converted)): 15300 mL/min | CL/F ([2]; oral, 20 mg/kg, 20 mg/kg PZQ plus 200 mg ketoconazole, n = 9, read-out: Clearance/F, treatment mean (SD) (converted)): 19100 mL/min | k el ([2]; oral, 20 mg/kg, 20 mg/kg PZQ plus 200 mg ketoconazole, n = 9, read-out: Elimination rate constant, treatment geo mean (converted)): 4.44e-05 s⁻¹ | k el ([2]; oral, 20 mg/kg, 20 mg/kg PZQ plus 200 mg ketoconazole, n = 9, read-out: Elimination rate constant, treatment mean (SD) (converted)): 6.11e-05 s⁻¹ | half-life ([2]; oral, 20 mg/kg, 20 mg/kg PZQ plus 200 mg ketoconazole, n = 9, read-out: Half life, treatment geo mean (converted)): 4.14 h | half-life ([2]; oral, 20 mg/kg, 20 mg/kg PZQ plus 200 mg ketoconazole, n = 9, read-out: Half life, treatment mean (SD) (converted)): 6 h | Tmax ([2]; oral, 20 mg/kg, 20 mg/kg PZQ plus 200 mg ketoconazole, n = 9, read-out: T max, treatment geo mean): 1.53 h | Tmax ([2]; oral, 20 mg/kg, 20 mg/kg PZQ plus 200 mg ketoconazole, n = 9, read-out: T max, treatment mean (SD)): 1.61 h | Vd/F ([2]; oral, 20 mg/kg, 20 mg/kg PZQ plus 200 mg ketoconazole, n = 9, read-out: V d/F, treatment geo mean): 5480 L | Vd/F ([2]; oral, 20 mg/kg, 20 mg/kg PZQ plus 200 mg ketoconazole, n = 9, read-out: V d/F, treatment mean (SD)): 7880 L | AUC ([2]; oral, 20 mg/kg, AUC, PZQ alone): 1350 ± 1470 ng·h/mL | AUC ([2]; oral, 20 mg/kg, read-out: AUC from the in vivo pharmacokinetic study): 2400 ng·h/mL | AUC ([2]; oral, AUC, PZQ + KTZ): 1470 ± 767 ng·h/mL | AUC(0-inf) ([2]; po, 20 mg/kg, single oral 20 mg/kg PZQ alone, n = 9, read-out: AUCinf, reference geo mean): 1300 ng·h/mL | AUC(0-inf) ([2]; po, 20 mg/kg, single oral 20 mg/kg PZQ alone, n = 9, read-out: AUCinf, reference mean (SD)): 1340 ng·h/mL | AUC ([2]; po, 20 mg/kg, single oral 20 mg/kg PZQ alone, n = 9, read-out: AUCt0‐tlast, reference geo mean): 1120 ng·h/mL | AUC ([2]; po, 20 mg/kg, single oral 20 mg/kg PZQ alone, n = 9, read-out: AUCt0‐tlast, reference mean (SD)): 1240 ng·h/mL | CL/F ([2]; po, 20 mg/kg, single oral 20 mg/kg PZQ alone, n = 9, read-out: Clearance/F, reference geo mean (converted)): 14600 mL/min | CL/F ([2]; po, 20 mg/kg, single oral 20 mg/kg PZQ alone, n = 9, read-out: Clearance/F, reference mean (SD) (converted)): 15000 mL/min | k el ([2]; po, 20 mg/kg, single oral 20 mg/kg PZQ alone, n = 9, read-out: Elimination rate constant, reference geo mean (converted)): 6.11e-05 s⁻¹ | k el ([2]; po, 20 mg/kg, single oral 20 mg/kg PZQ alone, n = 9, read-out: Elimination rate constant, reference mean (SD) (converted)): 6.39e-05 s⁻¹ | half-life ([2]; po, 20 mg/kg, single oral 20 mg/kg PZQ alone, n = 9, read-out: Half life, reference geo mean (converted)): 3.21 h | half-life ([2]; po, 20 mg/kg, single oral 20 mg/kg PZQ alone, n = 9, read-out: Half life, reference mean (SD) (converted)): 3.34 h | Tmax ([2]; po, 20 mg/kg, single oral 20 mg/kg PZQ alone, n = 9, read-out: T max, reference geo mean): 2.59 h | Tmax ([2]; po, 20 mg/kg, single oral 20 mg/kg PZQ alone, n = 9, read-out: T max, reference mean (SD)): 3 h | Vd/F ([2]; po, 20 mg/kg, single oral 20 mg/kg PZQ alone, n = 9, read-out: V d/F, reference geo mean): 4050 L | Vd/F ([2]; po, 20 mg/kg, single oral 20 mg/kg PZQ alone, n = 9, read-out: V d/F, reference mean (SD)): 4510 L | Clearance/F, reference mean (SD) ([2]; single oral 20 mg/kg PZQ alone, n = 9, 20 mg/kg): 902.09 ± 264 L/h | C max, reference mean (SD) [2, 5]: 313.1 (131.1) ng/mL | Clearance/F, reference mean (SD) [2, 5]: 902.1 (264.9) L/h | CLuH,int (CYP1A2): 7.55 mL/min/kg and 7.550 mL/min/kg | CLuH,int (CYP2C19): 4.60 mL/min/kg and 4.600 mL/min/kg
SMILES: O=C(C1CCCCC1)N1CC(=O)N2CCc3ccccc3[C@@H]2C1 [R‐PZQ, R‐Praziquantel]
Fraction unbound in plasma (fu) [3]: 0.2
